Test results from the NIST ThermoML archive (doi:10.1007/s10765-009-0566-6).

Test: osmotic coefficient (dimensionless); mn = molality of the nth substance listed, in mol/kg
Details: Liquid, vapor pressure osmometry

CCCCCn1cc[n+](C)c1.[Cl-] [1-methyl-3-pentylimidazolium chloride] + O
osmotic coefficient
Details	298.15 K	308.15 K	318.15 K	328.15 K
m1 = 0.014	0.931	0.938	0.941	0.949
m1 = 0.0263	0.889	0.905	0.911	0.923
m1 = 0.0391	0.882	0.887	0.903	0.908
m1 = 0.0518	0.871	0.878	0.885	0.897
m1 = 0.0634	0.863	0.868	0.878	0.886
m1 = 0.084	0.852	0.858	0.865	0.87
m1 = 0.1007	0.841	0.845	0.854	0.866
m1 = 0.1369	0.821	0.829	0.845	0.849
m1 = 0.1784	0.805	0.812	0.831	0.837
m1 = 0.2198	0.797	0.803	0.822	0.828
m1 = 0.2765	0.79	0.795	0.803	0.809
m1 = 0.3517	0.781	0.788	0.794	0.799
m1 = 0.4043	0.768	0.78	0.784	0.79
m1 = 0.5014	0.75	0.753	0.76	0.771
m1 = 0.5758	0.735	0.742	0.748	0.756
m1 = 0.8464	0.722	0.726	0.735	0.739
m1 = 1.002	0.71	0.715	0.723	0.73
m1 = 1.376	0.697	0.704	0.711	0.718
m1 = 1.797	0.687	0.691	0.697	0.704
